According to patent EP1144368B1, “ACETYLENIC ALPHA-AMINO ACID-BASED SULFONAMIDE HYDROXAMIC ACID TACE INHIBITORS” (priority 1999, dated 2000):
Read-outs that look alike come from different tables or passages of the source.

Legend:
MMP-1 = target: T1, MMP-1 (Homo sapiens, UniProt P03956); experiment: MMP-1 inhibition (thiopeptide or fluorescent peptide substrate); type: biochemical
T1 sequence (P03956 100-469): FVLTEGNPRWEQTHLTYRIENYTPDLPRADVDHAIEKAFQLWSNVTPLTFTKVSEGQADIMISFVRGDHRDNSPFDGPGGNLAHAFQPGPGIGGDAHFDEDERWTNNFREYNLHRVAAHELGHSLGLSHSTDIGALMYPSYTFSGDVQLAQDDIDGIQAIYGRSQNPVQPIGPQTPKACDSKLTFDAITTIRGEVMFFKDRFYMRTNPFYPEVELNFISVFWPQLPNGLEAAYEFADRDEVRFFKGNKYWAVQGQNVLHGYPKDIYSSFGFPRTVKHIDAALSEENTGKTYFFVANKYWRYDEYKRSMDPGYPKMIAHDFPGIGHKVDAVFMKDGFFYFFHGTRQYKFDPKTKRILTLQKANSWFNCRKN

MMP-13 = MMP-13 (Homo sapiens, UniProt P45452); experiment: MMP-13 inhibition (thiopeptide or fluorescent peptide substrate); type: biochemical
TACE = TACE (Homo sapiens, UniProt P78536); experiment: TACE inhibition (fluorescent peptidyl substrate); type: biochemical; settings: for inhibition at 1 µM: read-out: % Inhibition at 1 uM
THP-1 cells = experiment: THP-1 Soluble Protein Assay (LPS-stimulated; ELISA of TNF-a, TNF-R p75/80, TNF-R p55/60, IL-8); type: cell-based, human; settings: for inhibition at 3 µM: Homo sapiens
[1] = THP-1, read-out: THP % inhibition @ 3 µM, 3 µM
[2] = In Vitro Inhibition of TACE, 1 uM
[3] = Table 15: In Vitro Inhibition of TACE
[4] = THP-1, 3 µM, read-out: THP % Inhibition @ 3µM

Sequence of TACE (P78536 215-824): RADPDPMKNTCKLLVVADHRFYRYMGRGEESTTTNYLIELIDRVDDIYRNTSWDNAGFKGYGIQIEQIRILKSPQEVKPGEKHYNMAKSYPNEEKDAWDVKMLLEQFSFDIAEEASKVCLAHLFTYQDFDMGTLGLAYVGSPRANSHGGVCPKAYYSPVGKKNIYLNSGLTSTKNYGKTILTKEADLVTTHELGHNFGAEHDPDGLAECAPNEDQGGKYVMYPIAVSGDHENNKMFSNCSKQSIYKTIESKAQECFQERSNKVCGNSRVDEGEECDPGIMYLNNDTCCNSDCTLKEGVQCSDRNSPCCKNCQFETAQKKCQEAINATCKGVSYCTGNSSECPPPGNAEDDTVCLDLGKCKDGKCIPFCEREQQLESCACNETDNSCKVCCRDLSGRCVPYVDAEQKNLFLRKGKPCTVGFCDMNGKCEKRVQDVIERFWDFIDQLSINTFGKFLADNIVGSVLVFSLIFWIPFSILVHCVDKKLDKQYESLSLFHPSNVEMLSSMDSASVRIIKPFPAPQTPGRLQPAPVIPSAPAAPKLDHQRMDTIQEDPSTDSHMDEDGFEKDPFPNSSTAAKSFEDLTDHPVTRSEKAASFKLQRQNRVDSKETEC

Row | inhibition at 1 µM (TACE; [2]) [%] | Molecule | other results
1 | 47.8 | CC#CCOc1ccc(S(=O)(=O)N[C@@H](Cc2cnc[nH]2)C(=O)NO)cc1 [Example 87] | –
2 | 8.4 | CC#CCOc1ccc(S(=O)(=O)N2C[C@H](OCc3ccccc3)C[C@H]2C(=O)NO)cc1 [Example 88] | –
3 | 56.8 | CC#CCOc1ccc(S(=O)(=O)N[C@H](C(=O)NO)[C@@H](C)CC)cc1 [Example 89] | –
4 | 58.9 | CC#CCOc1ccc(S(=O)(=O)N[C@@H](CC(C)C)C(=O)NO)cc1 [Example 90] | –
5 | 102 | CC#CCOc1ccc(S(=O)(=O)N[C@@H](CCCCN)C(=O)NO)cc1 [Example 92] | –
6 | 61.7 | CC#CCOc1ccc(S(=O)(=O)N[C@@H](CCCC)C(=O)NO)cc1 [Example 93] | –
7 | 38.2 | CC#CCOc1ccc(S(=O)(=O)N[C@@H](Cc2ccccc2)C(=O)NO)cc1 [Example 94] | –
8 | 98.6 | CC#CCOc1ccc(S(=O)(=O)N[C@H](C(=O)NO)c2ccccc2)cc1 [Example 95] | –
9 | 22 | CC#CCOc1ccc(S(=O)(=O)N[C@@H](CSCNC(C)=O)C(=O)NO)cc1 [Example 96] | –
10 | 67.5 | CC#CCOc1ccc(S(=O)(=O)N[C@@H](COCc2ccccc2)C(=O)NO)cc1 [Example 97] | –
11 | 2.5 | CC#CCOc1ccc(S(=O)(=O)N[C@@H](CO)C(=O)NO)cc1 [Example 98] | –
12 | 28.5 | CC#CCOc1ccc(S(=O)(=O)N[C@H](C(=O)NO)[C@@H](C)OCc2ccccc2)cc1 [Example 99] | –
13 | 30.2 | CC#CCOc1ccc(S(=O)(=O)N[C@@H](Cc2c[nH]c3ccccc23)C(=O)NO)cc1 [Example 101] | –
14 | 27.3 | CC#CCOc1ccc(S(=O)(=O)N[C@@H](Cc2ccc(O)cc2)C(=O)NO)cc1 [Example 102] | –
15 | 52.8 | CC#CCOc1ccc(S(=O)(=O)N[C@@H](Cc2ccc(OCc3ccccc3)cc2)C(=O)NO)cc1 [Example 103] | –
16 | 40 | CC#CCOc1ccc(S(=O)(=O)N[C@H](CC(=O)O)C(=O)NO)cc1 [Example 298] | –
17 | 3 | CC#CCOc1ccc(S(=O)(=O)N[C@H](CSCc2ccc(OC)cc2)C(=O)NO)cc1 [Example 302] | –

The remaining lines, values behind:

Row | Molecule | inhibition at 1 µM (TACE; [2]) [%] | other results
18 | 9-({[4-(2-Butynyloxy)phenyl]sulfonyl}-N-hydroxy-1-thia-4-azaspiro [5,5]undecane-5-carboxamide [Example 237] | – | IC50 (MMP-1): 62 nM; IC50 (MMP-13): 12 nM; IC50 (TACE; read-out: TACE IC50): 212 nM; THP % inhibition @ 3 µM (THP-1 cells; 3 µM): 90%
19 | CC#CCOc1ccc(S(=O)(=O)N2CCSC(C)(C)C2C(=O)NO)cc1 (stereo not drawn) [235, 38] | – | IC50 (MMP-1): 6.6 nM; IC50 (TACE; read-out: TACE IC50): 8.4 nM; inhibition at 3 µM (THP-1 cells; [1]): 94%
20 | CC#CCOc1ccc(S(=O)(=O)N(C)CC(=O)NO)cc1 [Example 17, 2-[(4-But-2-ynyloxy-benzenesulfonyl)-methyl-amino]-N-hydroxy-acetamide] | – | IC50 (MMP-1): 1900 nM; IC50 (MMP-13): 99 nM; inhibition at 3 µM (THP-1 cells; [1]): 33%
21 | CC#CCOc1ccc(S(=O)(=O)N[C@@H](C)C(=O)NO)cc1 [Example 62B, L-2-(4-But-2-ynyloxy-benzenesulfonylamino)-N-hydroxy-propionamide] | – | inhibition at 1 µM (TACE): 46.2%
22 | CC#CCOc1ccc(S(=O)(=O)N[C@@H](CC)C(=O)NO)cc1 [Example 63] | 47.6 | –
23 | CC#CCOc1ccc(S(=O)(=O)N[C@@H](CCCNC(=N)N)C(=O)NO)cc1 [Example 64] | 67.4 | –
24 | CC#CCOc1ccc(S(=O)(=O)N[C@@H](CCCNC(N)=NS(=O)(=O)c2ccc(C)cc2)C(=O)NO)cc1 [Example 65] | 102 | –
25 | CC#CCOc1ccc(S(=O)(=O)N[C@@H](CC(N)=O)C(=O)NO)cc1 [Example 66] | 45.6 | –
26 | CC#CCOc1ccc(S(=O)(=O)N[C@@H](CC(=O)O)C(=O)NO)cc1 [Example 67] | 46.2 | –
27 | CC#CCOc1ccc(S(=O)(=O)N[C@@H](CC(=O)OC2CCCCC2)C(=O)NO)cc1 [Example 68] | 70.4 | –
28 | CC#CCOc1ccc(S(=O)(=O)NCCC(=O)NO)cc1 [Example 69] | – | inhibition at 1 µM (TACE): 48.5%
29 | CC#CCOc1ccc(S(=O)(=O)N[C@@H](CCN)C(=O)NO)cc1 [Example 70] | 21.1 | –
30 | CC#CCOc1ccc(S(=O)(=O)N[C@@H](CC2CCCCC2)C(=O)NO)cc1 [Example 71] | 86.7 | –
31 | CC#CCOc1ccc(S(=O)(=O)N[C@H](C(=O)NO)C2CCCCC2)cc1 [Example 72] | 57.4 | –
32 | CC#CCOc1ccc(S(=O)(=O)N[C@@H](CSC(C)(C)C)C(=O)NO)cc1 [Example 73] | 79 | IC50 (TACE; [3]): 451 ± 31 nM
33 | CC#CCOc1ccc(S(=O)(=O)N[C@@H](CSCc2ccc(OC)cc2)C(=O)NO)cc1 [Example 74] | 73.8 | –
34 | CC#CCOc1ccc(S(=O)(=O)N[C@H](CC(N)=O)C(=O)NO)cc1 [Example 75] | 55.8 | –
35 | CC#CCOc1ccc(S(=O)(=O)N[C@H](CCCN)C(=O)NO)cc1 [Example 76] | 29.7 | –
36 | CC#CCOc1ccc(S(=O)(=O)N[C@H](CC2CCCCC2)C(=O)NO)cc1 [Example 77] | 105 | –
37 | CC#CCOc1ccc(S(=O)(=O)N[C@@H](C(=O)NO)C2CCCCC2)cc1 [Example 78] | 101 | –

Row | Molecule | inhibition at 1 µM (TACE; [2]) [%] | other results
38 | CC#CCOc1ccc(S(=O)(=O)N[C@H](CC(C)C)C(=O)NO)cc1 [Example 79] | 107 | IC50 (TACE; [3]): 5.7 ± 2.5 nM
39 | CC#CCOc1ccc(S(=O)(=O)N[C@H](CCSC)C(=O)NO)cc1 [Example 80] | 105 | –
40 | CC#CCOc1ccc(S(=O)(=O)N[C@H](Cc2ccccc2)C(=O)NO)cc1 [Example 81] | 106 | –
41 | CC#CCOc1ccc(S(=O)(=O)N2CCC[C@@H]2C(=O)NO)cc1 [Example 82] | 98.4 | –
42 | CC#CCOc1ccc(S(=O)(=O)N[C@H](Cc2c[nH]c3ccccc23)C(=O)NO)cc1 [Example 83] | 105 | –
43 | CC#CCOc1ccc(S(=O)(=O)N[C@H](Cc2ccc(O)cc2)C(=O)NO)cc1 [Example 84] | 101 | –
44 | CC#CCOc1ccc(S(=O)(=O)N[C@@H](CCC(=O)O)C(=O)NO)cc1 [Example 86] | 37.5 | –
45 | CC#CCOc1ccc(S(=O)(=O)N[C@H](C(=O)NO)[C@@H](C)O)cc1 [Example 100] | – | inhibition at 1 µM (TACE): 15.4%
46 | CC#CCOc1ccc(S(=O)(=O)N[C@H](C(=O)NO)C(C)C)cc1 [Example 104] | – | inhibition at 1 µM (TACE): 38.5%
47 | CC#CCOc1ccc(S(=O)(=O)N(CCCCN2CCN(C)CC2)C(C(=O)NO)C(C)C)cc1 (stereo not drawn) [Example 122, 2-{{[4-(2-Butynyloxy)phenyl]sulfonyl}[4-(4-methyl-1-piperazinyl)butyl]amino}-N-hydroxy-3-methylbutanamide] | – | IC50 (TACE; read-out: TACE IC50): 126 nM; inhibition at 3 µM (THP-1 cells; [1]): 69%
48 | CC#CCOc1ccc(S(=O)(=O)N(C)C(C(=O)NO)c2ccc(OCCCNC(=O)OCc3ccccc3)cc2)cc1 (stereo not drawn) [Example 196, Benzyl3-{4-[1-[{[4-(2-butynyloxy)phenyl]sulfonyl}(methyl)amino]-2-(hydroxyamino)-2-oxoethyl]phenoxy}propylcarbamate] | – | MMP-1 %@1 (MMP-1; @1 (concentration unit not given)): 25%@1; inhibition at 3 µM (THP-1 cells; [1]): 87%
49 | CC#CCOc1ccc(S(=O)(=O)N2CCSC(CC)(CC)C2C(=O)NO)cc1 (stereo not drawn) [Example 238] | – | IC50 (MMP-1): 38 nM; IC50 (MMP-13): 6.8 nM; IC50 (TACE; read-out: TACE IC50): 228 nM; inhibition at 3 µM (THP-1 cells; [1]): 73%
50 | CC#CCOc1ccc(S(=O)(=O)N2C[C@H](CC(=O)NCCN(C)C)SC(C)(C)[C@@H]2C(=O)NO)cc1 [Example 284, (3S,6S)-4-{[4-(2-Butynyloxy)phenyl]sulfonyl}-6-(2-{[2-(dimethylamino)ethyl]amino}-2-oxoethyl)-N-hydroxy-2,2-dimethyl-3-thiomorpholinecarboxamide] | – | inhibition at 3 µM (THP-1 cells; [4]): 88%
51 | CC#CCOc1ccc(S(=O)(=O)N2CSC(C)(C)[C@@H]2C(=O)NO)cc1 [Example 286, (4S)-3-{(4-(2-Butynyloxy)phenyl]sulfonyl}-N-hydroxy-5,5-dimethyl-1,3-thiazolidine-4-carboxamide] | – | inhibition at 3 µM (THP-1 cells; [4]): 73%
52 | CC#CCOc1ccc(S(=O)(=O)N2CCN(C(=O)c3ccccc3)CCC2C(=O)NO)cc1 (stereo not drawn) [Example 289, 1-Benzoyl-4-{[4-(2-butynyloxy)phenyl]sulfonyl}-N-hydroxy-1,4-diazepane-5-carboxamide] | – | IC50 (MMP-13): 4 nM
53 | CC#CCOc1ccc(S(=O)(=O)N2CCNCCC2C(=O)NO)cc1 (stereo not drawn) [Example 292, 4-{[4-(2-Butynyloxy)phenyl]sulfonyl}-N-hydroxy-1,4-diazepane-5-carboxamide] | – | inhibition at 3 µM (THP-1 cells; [4]): 83%
54 | CC#CCOc1ccc(S(=O)(=O)N2CCN(C)CCC2C(=O)NO)cc1 (stereo not drawn) [Example 293, 4-{[4-(2-Butynyloxy)phenyl]sulfonyl}-N-hydroxy-1-methyl-1,4-diazepane-5-carboxamide] | – | IC50 (MMP-13): 21 nM; inhibition at 3 µM (THP-1 cells; [4]): 82%
55 | CC#CCOc1ccc(S(=O)(=O)N[C@H](Cc2ccc(F)c(F)c2)C(=O)NO)cc1 [Example 315] | – | IC50 (TACE; [3]): 5.7 nM
56 | CC#CCOc1ccc(S(=O)(=O)N[C@H](CCCNC(=O)Oc2ccc(OC)cc2)C(=O)NO)cc1 [Example 372, 4-Methoxyphenyl (4R)-4-({[4-(but-2-ynyloxy)phenyl]sulfonyl}amino)-5-(hydroxyamino)-5-oxopentylcarbamate] | – | IC50 (TACE): 8.4 nM
57 | CC#CCOc1ccc(S(=O)(=O)N2C=CSC(C)(C)[C@@H]2C(=O)NO)cc1 [Example 379, (3S)-4-{[4-(2-Butynyloxy)phenyl]sulfonyl}-N-hydroxy-2,2-dimethyl-3,4-dihydro-2H-1,4-thiazine-3-carboxamide] | – | inhibition at 3 µM (THP-1 cells; [4]): 85%
